The values below come from patent publication US6797721B2, “Phorboxazole derivatives for treating cancer” (Parker Hughes Institute, priority 1999, dated 2004).

The subject of assay [1] is MDA-MB-231 breast cancer cells. In words: In vitro adhesion assay to ECM proteins, MDA-MB-231. The class given is cell-based, human. The settings on record: laminin-, fibronectin-, and collagen-coated plates, 0.1 μM to 1 μM for 24 hours. The procedure: (§1) Human brain tumor cell lines U-373 MG and breast cancer cell lines BT-20 and MDA-MB-231 were obtained from American Type Culture Collection (ATCC, Rockville, Md.) and maintained in liquid culture using DMEM supplemented with 10% fetal bovine serum and antibiotics. Fibroblast conditioned medium was used as a source of chemoattractant in vitro invasion assays. Conditioned medium was prepared as described in the literature (Albini et.al., 1987, Cancer Res., 47:3239-3245).
(§2) In vitro adhesion assays were performed to (a) study the baseline adhesive properties of various breast cancer and glioblastoma cell lines and (b) evaluate the effects of phorboxazole A derivatives on the adhesive properties of breast cancer and glioblastoma cells. The plates for the adhesion assays were precoated with the extracellular matrix proteins laminin, fibronectin, or type IV collagen (each at a final concentration of 1 μg/ml in PBS) overnight at 4° C. and dried. On the day of the experiment, the wells were rehydrated and blocked with 10% bovine serum albumin in PBS for 1 hour at room temperature and used for the adhesion assays, as described below.
(§3) The effects of synthetic phorboxazole A and specific derivatives on adhesion of breast cancer and glioblastoma cells was studied. Exponentially growing cells in DMEM were incubated with phorboxazole compounds or genistein as a control at concentrations ranging from 0.1 μM to 1 μM for 24 hours in a humidified 5% CO2 atmosphere. DMSO (0.1%) was included as a vehicle control. After treatment, cells were detached from the flasks with 0.05% trypsin (Life Technologies) resuspended in DMEM, incubated at 37° C. for 2 hours to allow them to recover from the trypsinization stress and examined for their ability to adhere to plates precoated with ECM proteins.
(§4) In adhesion assays, cells were centrifuged, washed twice with serum-free DMEM, counted and resuspended in serum-free DMEM to a final concentration of 2.5×10^5 cells/ml. […] The adherent fraction was quantitated using MTT (3-[4,5-dimethylthiazol-2-yl]-2,5-diphenyltetrazolium bromide) assays. […] The absorbance of each well was measured in a microplate reader (Labsystems) at 540 nm and a reference wavelength of 690 nm.
(§5) To translate the OD540 values into the number of cells in each well, the OD540 values were compared to those on standard OD540-versus-cell number curves generated for each cell line. The adherent fractions of cells treated with phorboxazole A derivatives were compared to those of DMSO-treated control cells and the percent inhibition of adhesion was determined using the formula: [formula]
(§6) Each treatment condition was evaluated in duplicate in 3 independent experiments. The IC50 values were calculated by non-linear regression analysis. […]

The test system of assay [2] is BT-20 breast cancer cells. The assay can be described thus: In vitro adhesion assay to ECM proteins, BT-20. The class given is cell-based, human. The settings on record: laminin-, fibronectin-, and collagen-coated plates, 0.1 μM to 1 μM for 24 hours. The procedure:
as §1, §2, §3, §4, §5, §6

The subject of assay [3] is U373 glioblastoma cells. The assay can be described thus: In vitro adhesion assay to ECM proteins, U373. The class given is cell-based, human. The settings on record: laminin-, fibronectin-, and collagen-coated plates, 0.1 μM to 1 μM for 24 hours. The procedure:
as §1, §2, §3, §4, §5, §6

Assay [4] deals with U373 human glioblastoma cells. In words: MTT cytotoxicity assay, U373. The class given is cell-based. The following applies: U373 MG, read-out: IC50 [MTT]. The protocol: (§7) The cytotoxicity assay of synthetic Phorboxazole A and various derivative compounds against human tumor cells was performed using the MTT (3-[4,5-dimethylthiazol-2-yl]-2,5-diphenyl tetrazolium bromide) assay (Boehringer Mannheim Corp., Indianapolis, Ind.). Briefly, exponentially growing brain tumor cells were seeded into a 96-well plate at a density of 2.5×10^4 cells/well and incubated for 36 hours at 37° C. prior to drug exposure. On the day of treatment, culture medium was carefully aspirated from the wells and replaced with fresh medium containing the various phorboxazole A derivative compounds as well as the tyrosine kinase inhibitory isoflavone genistein (GEN) at concentrations ranging from 0.1 to 250 μM. Triplicate wells were used for each treatment.
(§8) Human glioblastoma cells U373 (brain cancer), human B-lineage acute lymphoblastic leukemia cells NALM-6, and human breast cancer cells BT-20 were obtained from American Type Culture Collection (Rockville, Md.) and maintained as a continuous cell line in Dulbecco's modified Eagles's medium supplemented with 10% fetal bovine serum and antibiotics.
(§9) The cells were incubated with the various compounds for 24-36 hours at 37° C. in a humidified 5% CO2 atmosphere. To each well, 10 μl of MTT (0.5 mg/ml final concentration) was added and the plates were incubated at 37° C. for 4 hours to allow MTT to form formazan crystals by reacting with metabolically active cells. The fonnazan crystals were solubilized overnight at 37° C. in a solution containing 10% SDS in 0.01 M HCl. The absorbance of each well was measured in a microplate reader (Labsystems) at 540 nm and a reference wavelength of 690 nm. To translate the OD540 values into the number of live cells in each well, the OD540 values were compared to those on standard OD540-versus-cell number curves generated for each cell line. The percent survival was calculated using the formula: [formula]
(§10) The IC50 values were calculated by non-linear regression analysis.
(Tetrazolium assays rely on reduction of a dye to a coloured formazan, in cell work by metabolically active cells.)

In assay [5] the test system is BT-20 human breast cancer cells. The assay can be described thus: MTT cytotoxicity assay, BT-20. It is filed as cell-based. The protocol:
as §7, §8, §9, §10

Assay [6] concerns NALM-6 human B-lineage acute lymphoblastic leukemia cells. The assay can be described thus: MTT cytotoxicity assay, NALM-6. The class given is cell-based. The protocol:
as §7, §8, §9, §10

Assay [7] relates to U373 glioblastoma cells. The assay can be described thus: Matrigel invasion assay (Boyden chambers). It is filed as cell-based. The settings on record: Homo sapiens, U373 MG, read-out: IC50, inhibition of glioblastoma cell invasion through Matrigel. The protocol:
The in vitro invasiveness of human brain tumor cell lines U-373 MG and breast cancer cell lines BT-20 and MDA-MB-231 cells was assayed using a previously published method which employs Matrigel™-coated Costar 24-well transwell cell culture chambers (“Boyden chambers”) with 8.0-μm-pore polycarbonate filter inserts (Albini,et.al, 1987, Cancer Res., 47:3239-3245). The chamber filters were coated with 50 μg/ml of Matrigel™ matrix, incubated overnight at room temperature under a laminar flow hood and stored at 4° C. Matrigel™ matrix is made up of several components of the extracellular matrix (ECM), including collagen, laminin and proteo-glycans. The cancer cells were incubated with 500, 250, 125, 62.5, and 31.2 nM concentrations of the synthetic Phorboxazole compounds for 72 hours.
On the day of the experiment, the coated inserts were rehydrated with 0.5 ml serum-free DMEM containing 0.1% bovine serum albumin for 1-2 hours. The treated cells were trypsinized, washed twice with serum-free DMEM containing BSA, counted and resuspended at 1×10^5 cells/ml. A 0.5 ml cell suspension containing 5×10^4 cells in a serum-free DMEM was added to the Matrigel™-coated and rehydrated filter inserts. A volume of 750 μl of NIH fibroblast conditioned medium was placed as a chemoattractant in 24-well plates and the inserts were placed in wells and incubated at 37° C. for 48 hours.
The invasive cells that migrated to the lower side of the filter were fixed, stained with Hema-3 solutions and counted under microscope. Five to 10 random fields per filter were counted to determine the mean (±SE) values for the invasive fraction. The invasive fractions of cells treated with phorboxazole A derivatives were compared to those of DMSO treated control cells and the percent inhibition of invasiveness was determined using the formula: [formula]
Each treatment condition was evaluated in duplicate in 3 independent experiments. IC50 values were calculated by non-linear regression analysis using Graphpad Prisin Software Version 2.0 (Graphpad Software Inc., San Diego, Calif.).

The mark [8] stands for this setting: U373 (brain tumor, glioblastoma), 24-36 hours.
Setting [9] is: BT-20 (breast cancer), 24-36 hours, read-out: IC50 [MTT].
Where [10] appears, read: NALM-6 (leukemia, ALL), 24-36 hours, read-out: IC50 [MTT].

Read-outs that look alike come from different tables or passages of the source.

By IC50 is commonly meant the concentration at which inhibition is half-maximal.

Consider `COC(=O)/C=C/C[C@H]1O[C@@H](/C(C)=C/c2coc(C[C@]3(O)C[C@H](OC)C[C@H]([C@H](O)/C=C(C)/C=C/[C@@H](C/C=C/Br)OC)O3)n2)[C@H](C)[C@@H](OC(C)=O)[C@H]1C` [Compound 4, 24-O-Acetyl-18-methyl-phorboxylate (C18-C46 analog)], for which the “Inhibition of cell adhesion” value (in assay [1]; in assay [2]; in the assay on U373 glioblastoma cells [3]) was “active” throughout. Also, the IC50 in assay [4] was greater than 2 µM; in assay [5] (BT-20, read-out: IC50 [MTT]), greater than 2 µM; in assay [6] (NALM-6, read-out: IC50 [MTT]), greater than 2 µM; in the assay with U373 glioblastoma cells [7], 0.151 µM.

For the compound `C=C1C[C@@H]2C[C@@H]3C[C@@H](O)C[C@@H](O3)c3coc(n3)/C=C/C[C@H]3O[C@@H](/C(C)=C/C(CO)NC(=O)C[C@]4(O)C[C@H](OC)C[C@H]([C@H](O)/C=C(C)/C=C/[C@@H](C/C=C/Br)OC)O4)[C@H](C)[C@@H](OC(=O)/C=C\C[C@@H](C1)O2)[C@H]3C` (stereo partly drawn) [Compound 6, 29-Phorboxamide A (hydrated analog)], the “Inhibition of cell adhesion” value (in assay [1]; in assay [2]; in the assay on U373 glioblastoma cells [3]) was “active” in each case. The IC50 in assay [4] (setting [8]) is greater than 2 µM; in assay [5] (setting [9]), greater than 2 µM; in assay [6] (setting [10]) it was greater than 2 µM; with U373 glioblastoma cells [7] (cells treated 72 hours, invasion 48 hours), less than 0.125 µM.

For the compound `C#CC[C@H](/C=C/C(C)=C/[C@@H](O)[C@H]1C[C@@H](OC)C[C@](Cc2nc(/C=C(\C)[C@@H]3O[C@@H]4C/C=C/c5nc(co5)[C@H]5C[C@H](O)C[C@@H](C[C@H]6CC(=C)C[C@H](C/C=C\C(=O)O[C@@H]([C@H]4C)[C@H]3C)O6)O5)co2)(OC)O1)OC` [Compound 7, 45,46-Dehydrobromo-33-O-methyl-Phorboxazole A], the 50% inhibitory concentration (IC50) in assay [4] (setting [8]), in assay [5] (setting [9]) and in assay [6] (setting [10]) was greater than 2 µM in each case.

As for `C=C1C[C@@H]2C[C@@H]3C[C@@H](O)C[C@@H](O3)c3coc(n3)/C=C/C[C@H]3O[C@@H](/C(C)=C/c4coc(C[C@]5(O)C[C@H](OC)C[C@H](CO)O5)n4)[C@H](C)[C@@H](OC(=O)/C=C\C[C@@H](C1)O2)[C@H]3C` [Compound 3, C1-C38 Phorboxazole A], the IC50 in assay [4] (setting [8]), in assay [5] (setting [9]) and in assay [6] (setting [10]) was greater than 2 µM each time.

For `C=C1C[C@@H]2C[C@@H]3C[C@@H](O)C[C@@H](O3)c3coc(n3)/C=C/C[C@H]3O[C@@H](/C(C)=C/c4coc(C)n4)[C@H](C)[C@@H](OC(=O)/C=C\C[C@@H](C1)O2)[C@H]3C` [Compound 2, 32-Methyl-phorboxolide A (C1-C32 analog)], the IC50 is greater than 2 µM in assay [4]; greater than 2 µM in assay [5] (BT-20, read-out: IC50 [MTT]); greater than 2 µM in assay [6] (NALM-6, read-out: IC50 [MTT]).

Consider `COC(=O)C[C@]1(O)C[C@H](OC)C[C@H]([C@H](O)/C=C(C)/C=C/[C@@H](C/C=C/Br)OC)O1` [Compound 5, 31-Methyl-phorboxylate (C31-C46 analog)], for which the “Inhibition of cell adhesion” value (in assay [1]; in assay [2]; in the assay with U373 glioblastoma cells [3]) was “active” throughout. In addition, the 50% inhibitory concentration (IC50) was greater than 2 µM in assay [4]; greater than 2 µM in assay [5] (BT-20, read-out: IC50 [MTT]); greater than 2 µM in assay [6] (NALM-6, read-out: IC50 [MTT]); 0.422 µM in the assay with U373 glioblastoma cells [7].

As for `C=C1C[C@@H]2C[C@@H]3C[C@@H](O)C[C@@H](O3)c3coc(n3)/C=C/C[C@H]3O[C@@H](/C(C)=C/c4coc(C[C@]5(O)C[C@H](OC)C[C@H]([C@H](O)/C=C(C)/C=C/[C@@H](C/C=C/Br)OC)O5)n4)[C@H](C)[C@@H](OC(=O)CCC[C@@H](C1)O2)[C@H]3C` [Compound 10, 2,3-Dihydrophorboxazole A], the 50% inhibitory concentration (IC50) in assay [4] (setting [8]), in assay [5] (setting [9]) and in assay [6] (setting [10]) was greater than 2 µM throughout.
